In PubChem BioAssay AID1259407 (Chemical Carcinogenesis Research Information System (CCRIS), 2018):
Activity calls are given as the source filed them. The rule behind the calls is not given here.

Tested on: CCRIS mutagenicity, Ames/micronucleus/aberration tests
Experiment: CCRIS mutagenicity studies
[1] = Test System: AMES SALMONELLA TYPHIMURIUM, Strain/Indicator: TA100, Metabolic Activation: NONE, Method: PREINCUBATION
[2] = Test System: AMES SALMONELLA TYPHIMURIUM, Strain/Indicator: TA98, Metabolic Activation: RAT, LIVER, S-9, AROCLOR 1254, Method: STANDARD PLATE
[3] = Test System: AMES SALMONELLA TYPHIMURIUM, Strain/Indicator: TA100, Metabolic Activation: RAT, LIVER, S-9, AROCLOR 1254, Method: STANDARD PLATE
[4] = Test System: AMES SALMONELLA TYPHIMURIUM, Strain/Indicator: TA98, Metabolic Activation: NONE, Method: PREINCUBATION
[5] = Test System: AMES SALMONELLA TYPHIMURIUM, Strain/Indicator: TA1535, Metabolic Activation: NONE, Method: PREINCUBATION
[6] = Test System: AMES SALMONELLA TYPHIMURIUM, Strain/Indicator: TA97, Metabolic Activation: NONE, Method: PREINCUBATION

In the case of `CCCCCCCCCCCC[N+](C)(C)COCCCCCCCCC`, the mutagenic call (Test System: BACILLUS SUBTILIS, Strain/Indicator: H17/REC, Metabolic Activation: NONE, Method: STANDARD PLATE) is reported as “inactive; negative” and the mutagenic call (Test System: BACILLUS SUBTILIS, Strain/Indicator: M45, Metabolic Activation: NONE, Method: STANDARD PLATE) is reported as “inactive; negative”.

In the case of `O=CCO`, the mutagenic call [1] is reported as “inactive; negative”.

In the case of `C/C(O)=C1/C(=O)[C@@H]2[C@H]3c4c[nH]c5cccc(c45)C[C@H]3C(C)(C)N2C1=O`, the mutagenic call [1] is reported as “inactive; negative” and the mutagenic call (Test System: AMES SALMONELLA TYPHIMURIUM, Strain/Indicator: TA100, Metabolic Activation: RAT, LIVER, S-9, PHENOBARBITAL, Method: PREINCUBATION) is reported as “inactive; negative”.

For `CN(C)c1ccc([C@H]2C[C@@]3(C)[C@@H](CC[C@@]3(O)/C=C\CO)[C@@H]3CCC4=CC(=O)CCC4=C32)cc1`, the mutagenic call (End Point: IN VITRO CHROMOSOMAL ABERRATIONS, Test System: HUMAN PERIPHERAL LYMPHOCYTES, Metabolic Activation: NONE) was “inactive; negative”, the mutagenic call (End Point: IN VITRO CHROMOSOMAL ABERRATIONS, Test System: HUMAN PERIPHERAL LYMPHOCYTES, Metabolic Activation: RAT, LIVER, S-9, AROCLOR 1254) was “inactive; negative” and the mutagenic call (Test System: AMES SALMONELLA TYPHIMURIUM, Strain/Indicator: TA98, Metabolic Activation: NONE, Method: STANDARD PLATE) was “inactive; negative”. For the same molecule, the mutagenic call [2] was “inactive; negative”, the mutagenic call (Test System: AMES SALMONELLA TYPHIMURIUM, Strain/Indicator: TA100, Metabolic Activation: NONE, Method: STANDARD PLATE) was “inactive; negative” and the mutagenic call [3] was “inactive; negative”. The mutagenic call (Test System: AMES SALMONELLA TYPHIMURIUM, Strain/Indicator: TA1535, Metabolic Activation: NONE, Method: STANDARD PLATE) was “inactive; negative”, the mutagenic call (Test System: AMES SALMONELLA TYPHIMURIUM, Strain/Indicator: TA1535, Metabolic Activation: RAT, LIVER, S-9, AROCLOR 1254, Method: STANDARD PLATE) was “inactive; negative” and the mutagenic call (Test System: AMES SALMONELLA TYPHIMURIUM, Strain/Indicator: TA1537, Metabolic Activation: NONE, Method: STANDARD PLATE) was “inactive; negative”. For the same molecule, the mutagenic call (Test System: AMES SALMONELLA TYPHIMURIUM, Strain/Indicator: TA1537, Metabolic Activation: RAT, LIVER, S-9, AROCLOR 1254, Method: STANDARD PLATE) was “inactive; negative”, the mutagenic call (Test System: AMES SALMONELLA TYPHIMURIUM, Strain/Indicator: TA1538, Metabolic Activation: NONE, Method: STANDARD PLATE) was “inactive; negative” and the mutagenic call (Test System: AMES SALMONELLA TYPHIMURIUM, Strain/Indicator: TA1538, Metabolic Activation: RAT, LIVER, S-9, AROCLOR 1254, Method: STANDARD PLATE) was “inactive; negative”.

`COS(=O)(=O)OC` was tested, and the mutagenic call (End Point: IN VITRO CHROMOSOMAL ABERRATIONS, Test System: CHL CELLS, Metabolic Activation: NONE) was “active; positive (structural changes)”, the mutagenic call (End Point: IN VITRO CHROMOSOMAL ABERRATIONS, Test System: CHL CELLS, Metabolic Activation: RAT, LIVER, S-9, SODIUM PHENOBARBITAL AND 5,6-BENZOFLAVONE) was “active; positive (structural changes)” and the mutagenic call (End Point: In vitro micronucleus, Test System: Chinese Hamster Ovary (CHO-WBL) cells, Metabolic Activation: None) was “active; positive (p<0.01)”. For the same molecule, the mutagenic call (Test System: AMES SALMONELLA TYPHIMURIUM, Strain/Indicator: TA98, Metabolic Activation: NONE) was “active; positive”, the mutagenic call [4] was “active; positive” and the mutagenic call (Test System: AMES SALMONELLA TYPHIMURIUM, Strain/Indicator: TA98, Metabolic Activation: S-9) was “active; positive”. For the same molecule, the mutagenic call (Test System: AMES SALMONELLA TYPHIMURIUM, Strain/Indicator: TA100, Metabolic Activation: NONE) was “active; positive”, the mutagenic call [1] was “active; positive” and the mutagenic call (Test System: AMES SALMONELLA TYPHIMURIUM, Strain/Indicator: TA100, Metabolic Activation: S-9) was “active; positive”. The mutagenic call [5] was “active; positive”, the mutagenic call (Test System: AMES SALMONELLA TYPHIMURIUM, Strain/Indicator: TA1537, Metabolic Activation: NONE, Method: PREINCUBATION) was “active; positive” and the mutagenic call (Test System: AMES SALMONELLA TYPHIMURIUM, Strain/Indicator: TA1538, Metabolic Activation: NONE, Method: PREINCUBATION) was “active; positive”. For the same molecule, the mutagenic call (Test System: CHINESE HAMSTER V-79, Strain/Indicator: V-79/6-THIOGUANINE, Metabolic Activation: NONE, Method: FLASK ASSAY) was “inactive; negative” and the mutagenic call (Test System: CHO/HGPRT, Strain/Indicator: CHO-K1-BH4, Metabolic Activation: NONE, Method: STANDARD PLATE) was “active; positive”.

For `C=CCC1(C(C)C#CCC)C(=O)N=C(O)N(C)C1=O` (stereo not drawn), the mutagenic call (Test System: AMES SALMONELLA TYPHIMURIUM, Strain/Indicator: TA97, Metabolic Activation: HAMSTER, LIVER, S-9, AROCLOR 1254 (10 OR 30%), Method: PREINCUBATION) was “inactive; negative”, the mutagenic call [6] was “inactive; negative” and the mutagenic call (Test System: AMES SALMONELLA TYPHIMURIUM, Strain/Indicator: TA97, Metabolic Activation: RAT, LIVER, S-9, AROCLOR 1254 (10 OR 30%), Method: PREINCUBATION) was “inactive; negative”. The mutagenic call (Test System: AMES SALMONELLA TYPHIMURIUM, Strain/Indicator: TA98, Metabolic Activation: HAMSTER, LIVER, S-9, AROCLOR 1254 (10 OR 30%), Method: PREINCUBATION) was “inactive; negative”, the mutagenic call [4] was “inactive; negative” and the mutagenic call (Test System: AMES SALMONELLA TYPHIMURIUM, Strain/Indicator: TA98, Metabolic Activation: RAT, LIVER, S-9, AROCLOR 1254 (10 OR 30%), Method: PREINCUBATION) was “inactive; negative”. For the same molecule, the mutagenic call (Test System: AMES SALMONELLA TYPHIMURIUM, Strain/Indicator: TA100, Metabolic Activation: HAMSTER, LIVER, S-9, AROCLOR 1254 (10 OR 30%), Method: PREINCUBATION) was “inactive; negative”, the mutagenic call [1] was “inactive; negative” and the mutagenic call (Test System: AMES SALMONELLA TYPHIMURIUM, Strain/Indicator: TA100, Metabolic Activation: RAT, LIVER, S-9, AROCLOR 1254 (10 OR 30%), Method: PREINCUBATION) was “inactive; negative”. The mutagenic call (Test System: AMES SALMONELLA TYPHIMURIUM, Strain/Indicator: TA1535, Metabolic Activation: HAMSTER, LIVER, S-9, AROCLOR 1254 (10 OR 30%), Method: PREINCUBATION) was “inactive; negative”, the mutagenic call [5] was “inactive; negative” and the mutagenic call (Test System: AMES SALMONELLA TYPHIMURIUM, Strain/Indicator: TA1535, Metabolic Activation: RAT, LIVER, S-9, AROCLOR 1254 (10 OR 30%), Method: PREINCUBATION) was “inactive; negative”.

With `C=CC(=O)NCNC(=O)C=C` the mutagenic call (Test System: AMES SALMONELLA TYPHIMURIUM, Strain/Indicator: TA97, Metabolic Activation: HAMSTER, LIVER, S-9, AROCLOR 1254 (10%), Method: PREINCUBATION) was “inactive; negative”, the mutagenic call [6] was “inactive; negative” and the mutagenic call (Test System: AMES SALMONELLA TYPHIMURIUM, Strain/Indicator: TA97, Metabolic Activation: RAT, LIVER, S-9, AROCLOR 1254 (10%), Method: PREINCUBATION) was “inactive; negative”. The mutagenic call (Test System: AMES SALMONELLA TYPHIMURIUM, Strain/Indicator: TA98, Metabolic Activation: HAMSTER, LIVER, S-9, AROCLOR 1254 (10%), Method: PREINCUBATION) was “inactive; negative”, the mutagenic call [4] was “inactive; negative” and the mutagenic call (Test System: AMES SALMONELLA TYPHIMURIUM, Strain/Indicator: TA98, Metabolic Activation: RAT, LIVER, S-9, AROCLOR 1254 (10%), Method: PREINCUBATION) was “inactive; negative”. The mutagenic call (Test System: AMES SALMONELLA TYPHIMURIUM, Strain/Indicator: TA100, Metabolic Activation: HAMSTER, LIVER, S-9, AROCLOR 1254 (5, 10 OR 30%), Method: PREINCUBATION) was “inactive; negative”, the mutagenic call [1] was “inactive; negative” and the mutagenic call (Test System: AMES SALMONELLA TYPHIMURIUM, Strain/Indicator: TA100, Metabolic Activation: RAT, LIVER, S-9, AROCLOR 1254 (10%), Method: PREINCUBATION) was “inactive; negative”. The mutagenic call (Test System: AMES SALMONELLA TYPHIMURIUM, Strain/Indicator: TA1535, Metabolic Activation: HAMSTER, LIVER, S-9, AROCLOR 1254 (10%), Method: PREINCUBATION) was “active; positive”, the mutagenic call [5] was “inactive; negative” and the mutagenic call (Test System: AMES SALMONELLA TYPHIMURIUM, Strain/Indicator: TA1535, Metabolic Activation: RAT, LIVER, S-9, AROCLOR 1254 (10%), Method: PREINCUBATION) was “inactive; negative”.

`Cc1ccc2c(c1)C(C)c1ccccc1-2` (stereo not drawn) was tested, and the mutagenic call [2] was “inactive; negative” and the mutagenic call [3] was “active; positive”.

For `CCN(CC)CCCNc1ccc2ncn3c4ccc(O)cc4c(=O)c1c23`, the mutagenic call (Test System: CHINESE HAMSTER V-79, Strain/Indicator: V-79 (HGPRT)/6-THIOGUANINE, Metabolic Activation: NONE) was “active; positive”.
